Assay results reported in a melting point compilation (Tetko et al.; mined from patent text by program, amines drawn as free bases though some values may be those of a salt).

| melting point | Structure (SMILES) |
| --- | --- |
| 249 to 251 °C | O=C(Nc1cccc2c(Sc3ncc[nH]3)c(Br)cnc12)c1c(Cl)cccc1Cl |
| 103 to 105 °C | O=C1CCc2cc(Br)ccc2O1 |
| 87 to 90 °C | CCCN1CCC(c2c[nH]c3ccc(NS(C)(=O)=O)cc23)CC1 |
| 135 to 140 °C | CC1CC(=O)c2c(ccc(Cl)c2Cl)O1 (stereo not drawn) |
| 136 to 137 °C | CCCc1c(OCCCOc2ccc(Cl)c(Cl)c2)ccc2c1OC(CCC(=O)O)(CCC(=O)O)CC2=O |
| 267 °C | COc1cc(N)ccc1NC1=CC(=O)C(N)=CC1=O |
| 116 to 118 °C | CCn1ncc(C(=O)c2ccc(S(C)(=O)=O)c(COC)c2C)c1O |
| 44 to 46 °C | O=[N+]([O-])c1ccc2c(c1OS(=O)(=O)C(F)(F)F)CCC2 |
| 148 to 150 °C | CS(=O)(=O)c1ccc(-c2oncc2C(=O)C2CC2)cc1Cl |
| 162 to 165 °C | Nc1ccccc1Cc1n[nH]c(Cl)n1 |
| 160 to 162 °C | CC1CC=C(Nc2ccccc2)c2ncc(C(=O)O)c(=O)n21 (stereo not drawn) |
| 77 to 79 °C | COC1OC(=O)c2c(O)cccc21 (stereo not drawn) |
| 140 to 141 °C | COc1cc(C(=O)c2cnc(Cl)nc2Cl)cc(OC)c1OC |
| 220 to 222 °C | CC(C)C1CCN(Cc2ccc(COc3cccc4c3C(=O)N(C3CCC(=O)NC3=O)C4=O)cc2)CC1 (stereo not drawn) |
| 155 to 158 °C | NC(=O)NC(=S)NC(=O)c1ccc(Cl)cc1 |
| 215 to 217 °C | O=C1N(Cc2cnc(Br)s2)c2ccccc2C12COc1cc3c(cc12)OCO3 (stereo not drawn) |
| 94 to 96 °C | O=C1OCCN1c1ccc([N+](=O)[O-])cc1Cl |
| 133 to 135 °C | CCN=c1[nH]c2ccccc2c2nc(-c3ccco3)nn12 |
| 112 to 113 °C | O=C1CCCc2cc(Sc3ccccc3)cc(F)c21 |
| 171 to 172 °C | Cc1cc(OCC(O)CCl)c2cn[nH]c2c1 (stereo not drawn) |
| 108 °C | Cc1ccc2c(c1)c1c(n2CCCl)C(=O)CCC1 |
| 130 °C | O=C1N(c2cc(Cl)nc(Cl)c2)C(=O)[C@@]2(Cc3ccc(OC(F)(F)F)cc3)C[C@H](n3cccc3)CN12 |
| 179 °C | CC(OCc1cc2nc(Cl)ccc2n1S(=O)(=O)c1ccc2ncsc2c1)C(=O)O (stereo not drawn) |
| 124 °C | CCOC(=O)C1=C(N)NC(C)=C(C(=O)OC)C1c1cccc([N+](=O)[O-])c1 (stereo not drawn) |

| melting point | Structure (SMILES) |
| --- | --- |
| 165 to 167 °C | CC(C)(C)OC(=O)N1CCN(c2ccc3nc(-c4cccs4)cn3n2)CC1 |
| 124 to 127 °C | O=c1cccc(-c2ccccn2)[nH]1 |
| 166 to 167 °C | CC1(C)C(=O)N(c2ccc(C#N)c(Cl)c2)C(=O)N1CCCCCN1C(=O)N(c2ccc(C#N)c(Cl)c2)C(=O)C1(C)C |
| 86 °C | CCOC(=O)Cc1ccc(OCc2ccccc2)c2c1OCCO2 |
| 148 °C | CCC(=NC#N)N(C)C(C)c1ccc(Cl)cc1Cl (stereo not drawn) |
| 182 °C | CC(C)(C)OC(=O)Nc1ccc(C#Cc2nccs2)cc1N |
| 111 °C | CCC(=O)NCC1Cc2cccc3cccc1c23 (stereo not drawn) |
| 268 to 271 °C | Cn1cc2c(c1-c1ccccc1)C(=O)c1ccccc1C2=O |
| 150 to 152 °C | Cc1cn(-c2ccc(NC(=O)c3ccc(Cl)c(C#Cc4ccc(NC5CC5)nn4)c3)cc2C(F)(F)F)cn1 |
| 260 to 261 °C | NC(N)=Nc1nc(-c2cccc(CCl)n2)cs1 |
| 141 to 144 °C | C=CCn1c(C)nc(N2CCc3ccccc3CC2)c(C#N)c1=O |
| 85 to 87 °C | CCOC(=O)c1c(C)nc(N2CCN(c3ccccc3)CC2)c2nccnc12 |
| 125 to 126 °C | O=C(c1ccccc1)c1cc([N+](=O)[O-])ccc1O |
| 147 to 149 °C | CCCN(CCC(=O)Nc1c(SC)nc(C)nc1N(CC)CC)c1ccccc1 |
| 172 to 180 °C | O=C1CC(NC(=O)C2CCCN3C(=O)CCC(NC(=O)c4ccccc4)C(=O)N23)C(OC2CCCC2)O1 (stereo not drawn) |
| 98.6 to 99.3 °C | COc1ccc(-c2cc(C(=O)NCc3ccccn3)c(=O)n(CC3CC3)n2)cc1 |
| 60 to 63 °C | COC(=O)COc1cccc(-c2ccc(Cl)cc2)n1 |
| 209 to 211 °C | Clc1ccc2c(c1)N(c1ncnc3cc4c(cc13)OCCO4)CC2 |
| 238 to 242 °C | O=C(O)CN1C(=O)C(=Cc2ccc([N+](=O)[O-])o2)SC1=S |
| 156 to 158 °C | C#CCOc1cc(-n2nc(C)c(Cl)c2C)c(Cl)cc1Cl |
| 284 to 290 °C | CS(=O)(=O)c1ccc2ncn(/C=C/C(=O)O)c(=O)c2c1 |
| 225 °C | O=C(O)c1cc(C(F)(F)F)cc(Cl)c1-n1cnc(C(F)(F)F)cc1=O |
| 67 to 71 °C | CC(=O)CC(=O)OCCCN1C(=O)c2ccccc2C1=O |
| 263 to 266 °C | Clc1nc2cc(Br)c(Br)c(Br)c2[nH]1 |

Continued, compound first:

| Structure (SMILES) | melting point |
| --- | --- |
| O=C(C=Cc1ccc(Oc2ccccc2)cc1)c1ccc(C2CCCCC2)cc1 | 161 °C |
| Cc1ccccc1-c1ccc(C(=O)N2Cc3ccc(C(=O)NC(C)CCc4ccccc4)n3Cc3ccccc32)cc1C (stereo not drawn) | 152 to 154 °C |
| COc1ccc(NC(=O)c2ccccc2)cc1Nc1ccccc1 | 209 to 210 °C |
| C#Cc1ccc2ccc(C#C)cc2c1 | 124 to 126 °C |
| CCC(Cc1ccccc1)(NC(=O)CN)c1ccccc1 (stereo not drawn) | 108 to 110 °C |
| CC(=O)c1c(C)[nH]c(CC(=O)O)c1C | 195 to 205 °C |
| Nc1nc2ccccc2c2c1ncn2Cc1cc(-c2ccc(F)cc2)no1 | 259 to 260 °C |
| CCn1ncnc1COc1nn2c(-c3ccccc3F)nncc2c1-c1ccccc1 | 171 to 173 °C |
| CCCN(C)CCCCC1CCN(S(=O)(=O)c2ccc(C(F)(F)F)cc2)CC1 | 73 to 74.8 °C |
| Clc1nccnc1N1CCNCC1 | 47 to 53 °C |
| COc1ccc(-c2cc(=O)c3c(O)cc(OCC4=COC(C)(C)O4)cc3o2)cc1OCC1=COC(C)(C)O1 | 155 to 156 °C |
| CN(C(=O)CN(C(=O)CNC(=O)OC(C)(C)C)c1ccccc1OCc1ccccc1)c1ccccc1 | 168 to 170 °C |
| CCCC(CCC)c1ccc(OCc2ccc(-c3csc(COc4cncc(C(=O)O)c4)c3)cc2)cc1 | 157 to 159 °C |
| CCc1cnc(OCCOc2ncnc(NS(=O)(=O)c3ccc(C(C)(C)C)cc3)c2Oc2cccc(OC)c2)nc1 | 158 to 160 °C |
| CCCCc1nc2ccn(Cc3ccc([N+](=O)[O-])cc3)c(=O)c2n1Cc1ccc([N+](=O)[O-])cc1 | 142 to 143 °C |
| O=C(O)CN(CCCCC(C(=O)O)N(CC(=O)O)CC(=O)O)CC(=O)O (stereo not drawn) | 216 to 220 °C |
| CCCCCCCCCCCC(=O)NCCOCCn1c(CCOC)nc2c(N)nc3ccccc3c21 | 80 to 83 °C |
| CCOC(=O)c1[nH]c(C)c(C)c1OCCCCl | 60 to 63 °C |
| CCCCCCCCCCN=C=O | 110 to 112 °C |
| CC(C#CC1CCC1)N(O)C(N)=O (stereo not drawn) | 144 to 145 °C |
| O=C(O)c1cnc(-c2nnn[nH]2)cc1C1CCCCC1 | 278 °C |
| CCN(CC(C)C)c1c(C(O)C#Cc2ccc(C(=O)O)cc2)cccc1C(C)(C)C (stereo not drawn) | 117 °C |
| COc1ccc(C(=O)Nc2nc3ccc(N4CCN(C)CC4)cc3c(NCc3ccccc3)c2C#N)cc1 | 173 °C |
| O=C(Nc1ccc(-n2nc(C(F)(F)F)cc2-c2cccnc2)cc1)c1ccccc1F | 138 to 140 °C |
| COc1nc2c(OCc3ccccc3)cccc2n1C | 98 to 102 °C |

| Structure (SMILES) | melting point |
| --- | --- |
| O=S(=O)(c1ccccc1)N1CCC(C(=Nc2ccc(F)cc2)c2ccc(F)cc2)CC1 | 123 to 124 °C |
| CCC1(N)CCN(c2c(F)c(N)c3c(=O)c(C(=O)O)cn(C4CC4)c3c2F)C1 (stereo not drawn) | 205 to 206 °C |
| Cc1cc(-c2ccco2)ccc1-c1cc(C(F)(F)F)nn1-c1ccc(S(C)(=O)=O)c(F)c1 | 77 to 79 °C |
| Cc1cccc(N(C=C(C#N)C#N)N=C(C#N)C#N)c1 | 157 to 159 °C |
| CCc1nc2c(N3CCOCC3)ncn(CC)c-2n1 | 103 to 107 °C |
| O=C1c2ccccc2C(=O)N1OCc1cc(=O)c(OCc2ccccc2)co1 | 172 °C |
| CCCCCCCCNCC(O)COc1ccc(SC)cc1C (stereo not drawn) | 59 to 60 °C |
| CCc1nc(-c2nn(Cc3ccccc3F)c3ccccc23)oc1CO | 144 °C |
| C[C@@H](O)c1nccc(N2CCn3c(nnc3-c3nc4ccccc4s3)C2)n1 | 216 to 218 °C |
| CCN(Cc1ccccc1)C(=O)Cc1c(-c2ccc(OC)cc2)nc2cc(C)ccn12 | 175 to 178 °C |
| CCOC(=O)CNc1ccc(OCC(=O)OCC)c(NC(=O)c2ccc(OCCCCc3ccccc3)cc2)c1 | 61 to 63 °C |
| COC1(c2ccc(C(F)(F)F)cc2CN(Cc2cc(C(F)(F)F)cc(C(F)(F)F)c2)c2nnn(C)n2)CCCCCC1 | 103 to 104 °C |
| Cc1cccc(NC(=O)NC2N=C(C3CCCCC3)c3ccccc3N(CC(=O)N3CC4CCC(CC4)C3)C2=O)c1 (racemic) | 133 to 135 °C |
| Cc1nc2sccn2c(=O)c1CCN1CCC2Nc3ccccc3C2C1 (stereo not drawn) | 152 °C |
| CN(CCNC(=O)Cc1ccc(OCc2ccc(-c3ccccc3)cc2)cc1)C(=O)OC(C)(C)C | 109 to 110 °C |
| O=c1cc(-c2ccc(OCCOCCOc3ccc(-c4cc(=O)c5c(O)cc(O)cc5o4)cc3)cc2)oc2cc(O)cc(O)c12 | 268 to 270 °C |
| Nc1nc(-c2ccc3ncccc3c2)c(-c2ccccn2)s1 | 226 °C |
| COc1ccc(OC2OC(COCc3ccccc3)C(OCc3ccccc3)C(O)C2OCc2ccccc2)cc1 (stereo not drawn) | 84 to 86 °C |
| CCc1c(CNc2ccc3ccc(C)nc3n2)c(CC)c(CNc2ccc3ccc(C)nc3n2)c(CC)c1CNc1ccc2ccc(C)nc2n1 | 207 to 208 °C |
| Nc1cc(OCc2ccccc2)nc(N)n1 | 195 °C |
| CCCCCCCNC(=O)Nc1ccccc1C(=O)NC1CCN(Cc2c(C(C)C)nc(C(C)C)c(COC)c2-c2ccc(F)cc2)CC1 | 123 °C |
| CCCCCC(CC(=O)Nc1cc(C(N)=O)ccc1CCCC)c1ccc(C(O)C(C)C)cc1OC (stereo not drawn) | 162 to 163 °C |
| O=C(O)CCc1cn(Cc2ccc(OCc3cccnc3)cc2)cc1-c1ccccc1 | 131 to 132 °C |
| CCCCCCCCCCCCCCCCC(Cl)C(=O)O (stereo not drawn) | 63.5 to 64 °C |
| O=[N+]([O-])c1c(NCC23CCCN2CCC3)ccc2ccccc12 | 86 to 87 °C |
